# Reference: article PMC9340768 (Journal of Medicinal Chemistry, 2022)
# Starred links: 1 amine or outer side, 2 acyl side, 3 side chain; linkers in the order of their positions; H or OH if unused. Positions of bridges follow the written chain, without caps; N, C: chain ends. Non-standard residues stand in square brackets, D forms with d. Residues, ends and D or L forms follow the SMILES beside them. Chains are numbered I, II in the order given. TATA = O=C(CC[*:1])N1CN(C(=O)CC[*:2])CN(C(=O)CC[*:3])C1; X1 = O=C(CCc1cn(CCOCCOCCOCCOCCOCCC(=O)[*:2])nn1)[*:1]; 1Nal = N[C@@H](Cc1cccc2ccccc12)C(=O)O; Hyp = O=C(O)[C@@H]1C[C@@H](O)CN1; hArg = N=C(N)NCCCC[C@H](N)C(=O)O; tBuAla = CC(C)(C)C[C@H](N)C(=O)O; Nle = CCCC[C@H](N)C(=O)O
# What was measured:
# [1] = target: CD137 (Homo sapiens, UniProt Q07011+Q96NY8); assay: HT1376/CD137 reporter coculture assay; format: cell-based
# [2] = Pharmacokinetics in Sprague-Dawley rats; settings: rat, in vivo, iv, 2 mg/kg
# Chain of CD137 (Q07011 24-255): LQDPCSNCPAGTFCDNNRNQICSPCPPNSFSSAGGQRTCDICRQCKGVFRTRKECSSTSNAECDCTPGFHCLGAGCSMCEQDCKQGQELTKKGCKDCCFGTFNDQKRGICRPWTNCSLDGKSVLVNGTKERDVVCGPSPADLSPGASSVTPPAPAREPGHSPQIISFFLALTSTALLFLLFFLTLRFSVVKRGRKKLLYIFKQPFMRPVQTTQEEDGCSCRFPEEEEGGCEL
# Chain of CD137 (Q96NY8 32-510): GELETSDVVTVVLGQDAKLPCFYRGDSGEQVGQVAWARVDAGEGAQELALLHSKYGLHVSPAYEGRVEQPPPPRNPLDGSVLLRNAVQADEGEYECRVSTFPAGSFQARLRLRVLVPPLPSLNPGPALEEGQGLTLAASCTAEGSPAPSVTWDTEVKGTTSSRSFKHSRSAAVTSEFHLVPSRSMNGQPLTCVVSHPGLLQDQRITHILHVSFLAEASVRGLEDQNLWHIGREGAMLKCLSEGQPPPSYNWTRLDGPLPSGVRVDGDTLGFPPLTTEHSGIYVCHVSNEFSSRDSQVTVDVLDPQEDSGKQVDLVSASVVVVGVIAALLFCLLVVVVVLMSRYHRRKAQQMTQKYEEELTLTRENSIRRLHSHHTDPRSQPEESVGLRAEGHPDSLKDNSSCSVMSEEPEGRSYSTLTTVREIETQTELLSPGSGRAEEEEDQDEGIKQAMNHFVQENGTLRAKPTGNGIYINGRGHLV
smiles,measurement,setting,value
CCCC[C@@H]1NC(=O)[C@H](Cc2ccc(O)cc2)NC(=O)[C@@H]2CCCN2C(=O)[C@H](CC(=O)O)NC(=O)[C@H](C)NC(=O)[C@H](Cc2ccccc2)NC(=O)[C@@H]2CSCCC(=O)N3CN(CN(C3)C(=O)CCSC[C@@H](C(=O)N[C@@H](C)C(N)=O)NC1=O)C(=O)CCSC[C@H](NC(C)=O)C(=O)N[C@@H](CC(C)(C)C)C(=O)N1CCC[C@H]1C(=O)N[C@@H](CCCCNC(=O)CCc1cn(CCOCCOCCOCCOCCOCCC(=O)N[C@H]3CSCCC(=O)N4CN5CN(C4)C(=O)CCSC[C@H](NC(=O)[C@@H](CC(=O)O)NC(=O)[C@H](Cc4cccc6ccccc46)NC(=O)[C@@H]4CCCN4C3=O)C(=O)N[C@@H](CCSC)C(=O)N[C@@H](CCCCNC(=N)N)C(=O)N[C@@H](CC(=O)O)C(=O)N[C@@H](Cc3c[nH]c4ccccc34)C(=O)N[C@@H](CO)C(=O)N[C@@H]([C@@H](C)O)C(=O)N3CCC[C@H]3C(=O)N3C[C@H](O)C[C@H]3C(=O)N[C@@H](Cc3c[nH]c4ccccc34)C(=O)N[C@H](C(N)=O)CSCCC5=O)nn1)C(=O)N[C@H](C)C(=O)N1CCC[C@H]1C(=O)N[C@@H](Cc1ccc(O)cc1)C(=O)N2 [BCY10571],EC50 relative to similar compounds,[1]; vs dLys4 (BCY10572) or C-terminal Dap (BCY10573) attachment,two- to threefold weaker
CCCC[C@@H]1NC(=O)[C@H](Cc2ccc(O)cc2)NC(=O)[C@@H]2CCCN2C(=O)[C@H](CC(=O)O)NC(=O)[C@H](C)NC(=O)[C@H](Cc2ccccc2)NC(=O)[C@@H]2CSCCC(=O)N3CN(CN(C3)C(=O)CCSC[C@@H](C(=O)N[C@@H](C)C(N)=O)NC1=O)C(=O)CCSC[C@H](NC(C)=O)C(=O)N[C@@H](CC(C)(C)C)C(=O)N1CCC[C@H]1C(=O)N[C@@H](CCC(=O)O)C(=O)N[C@H](CCCCNC(=O)CCc1cn(CCOCCOCCOCCOCCOCCOCCOCCOCCOCCOCCNC(=O)CCOCCN(CCOCCC(=O)NCCOCCOCCOCCOCCOCCOCCOCCOCCOCCOCCn3cc(CCC(=O)NCCCC[C@H]4NC(=O)[C@H](CCC(=O)O)NC(=O)[C@@H]5CCCN5C(=O)[C@H](CC(C)(C)C)NC(=O)[C@@H](NC(C)=O)CSCCC(=O)N5CN6CN(C5)C(=O)CCSC[C@H](NC(=O)[C@H](Cc5ccc(O)cc5)NC(=O)[C@@H]5CCCN5C4=O)C(=O)N[C@@H](Cc4ccccc4)C(=O)N[C@@H](C)C(=O)N[C@@H](CC(=O)O)C(=O)N4CCC[C@H]4C(=O)N[C@@H](Cc4ccc(O)cc4)C(=O)N[C@@H](CCCC)C(=O)N[C@H](C(=O)N[C@@H](C)C(N)=O)CSCCC6=O)nn3)CCOCCC(=O)NCCOCCOCCOCCOCCOCCOCCOCCOCCOCCOCCn3cc(CCC(=O)N[C@H]4CSCCC(=O)N5CN6CN(C5)C(=O)CCSC[C@H](NC(=O)[C@@H](CC(=O)O)NC(=O)[C@H](Cc5cccc7ccccc57)NC(=O)[C@@H]5CCCN5C4=O)C(=O)N[C@@H](CCSC)C(=O)N[C@@H](CCCCNC(=N)N)C(=O)N[C@@H](CC(=O)O)C(=O)N[C@@H](Cc4c[nH]c5ccccc45)C(=O)N[C@@H](CO)C(=O)N[C@@H]([C@@H](C)O)C(=O)N4CCC[C@H]4C(=O)N4C[C@H](O)C[C@H]4C(=O)N[C@@H](Cc4c[nH]c5ccccc45)C(=O)N[C@H](C(N)=O)CSCCC6=O)nn3)nn1)C(=O)N1CCC[C@H]1C(=O)N[C@@H](Cc1ccc(O)cc1)C(=O)N2 [BCY11027],half-life,[2],35.4 min
CCCC[C@@H]1NC(=O)[C@H](Cc2ccc(O)cc2)NC(=O)[C@@H]2CCCN2C(=O)[C@H](CC(=O)O)NC(=O)[C@H](C)NC(=O)[C@H](Cc2ccccc2)NC(=O)[C@@H]2CSCCC(=O)N3CN(CN(C3)C(=O)CCSC[C@@H](C(=O)N[C@@H](CNC(=O)CCc3cn(CC(=O)N[C@H]4CSCCC(=O)N5CN6CN(C5)C(=O)CCSC[C@H](NC(=O)[C@@H](CC(=O)O)NC(=O)[C@H](Cc5cccc7ccccc57)NC(=O)[C@@H]5CCCN5C4=O)C(=O)N[C@@H](CCSC)C(=O)N[C@@H](CCCCNC(=N)N)C(=O)N[C@@H](CC(=O)O)C(=O)N[C@@H](Cc4c[nH]c5ccccc45)C(=O)N[C@@H](CO)C(=O)N[C@@H]([C@@H](C)O)C(=O)N4CCC[C@H]4C(=O)N4C[C@H](O)C[C@H]4C(=O)N[C@@H](Cc4c[nH]c5ccccc45)C(=O)N[C@H](C(N)=O)CSCCC6=O)nn3)C(N)=O)NC1=O)C(=O)CCSC[C@H](NC(C)=O)C(=O)N[C@@H](CC(C)(C)C)C(=O)N1CCC[C@H]1C(=O)N[C@@H](CCC(=O)O)C(=O)N[C@H](C)C(=O)N1CCC[C@H]1C(=O)N[C@@H](Cc1ccc(O)cc1)C(=O)N2 [BCY11375],improvement of EC50,[1]; CD137 affinity improved from BCY9399 to BCY11375,3.6 fold
CCCC[C@@H]1NC(=O)[C@H](Cc2ccc(O)cc2)NC(=O)[C@@H]2CCCN2C(=O)[C@H](CC(=O)O)NC(=O)[C@H](C)NC(=O)[C@H](Cc2ccccc2)NC(=O)[C@@H]2CSCCC(=O)N3CN(CN(C3)C(=O)CCSC[C@H](NC(C)=O)C(=O)N[C@@H](CC(C)(C)C)C(=O)N[C@@H](CCC(=O)O)C(=O)N[C@@H](CCC(=O)O)C(=O)N[C@H](CCCCNC(=O)CCc3cn(CCOCCOCCOCCOCCOCCC(=O)N[C@H]4CSCCC(=O)N5CN6CN(C5)C(=O)CCSC[C@H](NC(=O)[C@@H](CC(=O)O)NC(=O)[C@H](Cc5cccc7ccccc57)NC(=O)[C@@H]5CCCN5C4=O)C(=O)N[C@@H](CCSC)C(=O)N[C@@H](CCCCNC(=N)N)C(=O)N[C@@H](CC(=O)O)C(=O)N[C@@H](Cc4c[nH]c5ccccc45)C(=O)N[C@@H](CO)C(=O)N[C@@H]([C@@H](C)O)C(=O)N4CCC[C@H]4C(=O)N4C[C@H](O)C[C@H]4C(=O)N[C@@H](Cc4c[nH]c5ccccc45)C(=O)N[C@H](C(N)=O)CSCCC6=O)nn3)C(=O)N3CCC[C@H]3C(=O)N[C@@H](Cc3ccc(O)cc3)C(=O)N2)C(=O)CCSC[C@@H](C(N)=O)NC1=O [BCY12377],clearance,"[2]; CL (mL/min/kg), SD rats, 2 mg/kg IV bolus",7.8 mL/min/kg
"CCCC[C@@H]1NC(=O)[C@H](Cc2ccc(O)cc2)NC(=O)[C@@H]2CCCN2C(=O)[C@H](CC(=O)O)NC(=O)[C@H](C)NC(=O)[C@H](Cc2ccccc2)NC(=O)[C@@H]2CSCCC(=O)N3CN(CN(C3)C(=O)CCSC[C@@H](C(=O)N[C@@H](C)C(N)=O)NC1=O)C(=O)CCSC[C@H](NC(C)=O)C(=O)N[C@@H](CC(C)(C)C)C(=O)N1CCC[C@H]1C(=O)N[C@@H](CCC(=O)O)C(=O)N[C@H](CCCCNC(=O)CCc1cn(CCOCCOCCOCCOCCOCCC(=O)NCCCC[C@H]3NC(=O)[C@H](Cc4cccc5ccccc45)NC(=O)[C@@H]4CCCN4C(=O)[C@@H](NC(C)=O)CSCCC(=O)N4CN5CN(C4)C(=O)CCSC[C@H](NC3=O)C(=O)N[C@@H](CCSC)C(=O)N[C@@H](CCCCNC(=N)N)C(=O)N[C@@H](Cc3c[nH]cn3)C(=O)N[C@@H](Cc3c[nH]c4ccccc34)C(=O)N[C@@H](CO)C(=O)N[C@@H]([C@@H](C)O)C(=O)N3CCC[C@H]3C(=O)N3C[C@H](O)C[C@H]3C(=O)N[C@@H](Cc3c[nH]c4ccccc34)C(=O)N[C@H](C(N)=O)CSCCC5=O)nn1)C(=O)N1CCC[C@H]1C(=O)N[C@@H](Cc1ccc(O)cc1)C(=O)N2 [BCY12579] (I: Ac-C[tBuAla]PE[dK]PYCFADPY[Nle]CA-NH2 / II: Ac-CP[1Nal][dK]CM[hArg]HWSTP[Hyp]WC-NH2; linker I:1-I:8-I:15, II:1-II:5-II:15 via TATA; linker I:5-II:4 via X1)",improvement of EC50,[1]; Nectin-4 affinity improved from BCY11858 to BCY12579,12 fold
CCCC[C@@H]1NC(=O)[C@H](Cc2ccc(O)cc2)NC(=O)[C@@H]2CCCN2C(=O)[C@H](CC(=O)O)NC(=O)[C@H](C)NC(=O)[C@H](Cc2ccccc2)NC(=O)[C@@H]2CSCCC(=O)N3CN(CN(C3)C(=O)CCSC[C@@H](C(=O)N[C@@H](C)C(N)=O)NC1=O)C(=O)CCSC[C@H](NC(C)=O)C(=O)N[C@@H](CC(C)(C)C)C(=O)N1CCC[C@H]1C(=O)N[C@@H](CCC(=O)O)C(=O)N[C@H](CCCCNC(=O)CCc1cn(CCOCCOCCOCCN(CCOCCOCCOCCn3cc(CCC(=O)NCCCC[C@H]4NC(=O)[C@H](CCC(=O)O)NC(=O)[C@@H]5CCCN5C(=O)[C@H](CC(C)(C)C)NC(=O)[C@@H](NC(C)=O)CSCCC(=O)N5CN6CN(C5)C(=O)CCSC[C@H](NC(=O)[C@H](Cc5ccc(O)cc5)NC(=O)[C@@H]5CCCN5C4=O)C(=O)N[C@@H](Cc4ccccc4)C(=O)N[C@@H](C)C(=O)N[C@@H](CC(=O)O)C(=O)N4CCC[C@H]4C(=O)N[C@@H](Cc4ccc(O)cc4)C(=O)N[C@@H](CCCC)C(=O)N[C@H](C(=O)N[C@@H](C)C(N)=O)CSCCC6=O)nn3)CCOCCOCCOCC(=O)NCCCNC(=O)Cn3cc(CCC(=O)NCCCNC(=O)COCCOCCOCCN(CCOCCOCCOCCn4cc(CCC(=O)NCCC(=O)N[C@H]5CSCCC(=O)N6CN7CN(C6)C(=O)CCSC[C@H](NC(=O)[C@@H](CC(=O)O)NC(=O)[C@H](Cc6cccc8ccccc68)NC(=O)[C@@H]6CCCN6C5=O)C(=O)N[C@@H](CCSC)C(=O)N[C@@H](CCCCNC(=N)N)C(=O)N[C@@H](CC(=O)O)C(=O)N[C@@H](Cc5c[nH]c6ccccc56)C(=O)N[C@@H](CO)C(=O)N[C@@H]([C@@H](C)O)C(=O)N5CCC[C@H]5C(=O)N5C[C@H](O)C[C@H]5C(=O)N[C@@H](Cc5c[nH]c6ccccc56)C(=O)N[C@H](C(N)=O)CSCCC7=O)nn4)CCOCCOCCOCCn4cc(CCC(=O)NCCC(=O)N[C@H]5CSCCC(=O)N6CN7CN(C6)C(=O)CCSC[C@H](NC(=O)[C@@H](CC(=O)O)NC(=O)[C@H](Cc6cccc8ccccc68)NC(=O)[C@@H]6CCCN6C5=O)C(=O)N[C@@H](CCSC)C(=O)N[C@@H](CCCCNC(=N)N)C(=O)N[C@@H](CC(=O)O)C(=O)N[C@@H](Cc5c[nH]c6ccccc56)C(=O)N[C@@H](CO)C(=O)N[C@@H]([C@@H](C)O)C(=O)N5CCC[C@H]5C(=O)N5C[C@H](O)C[C@H]5C(=O)N[C@@H](Cc5c[nH]c6ccccc56)C(=O)N[C@H](C(N)=O)CSCCC7=O)nn4)nn3)nn1)C(=O)N1CCC[C@H]1C(=O)N[C@@H](Cc1ccc(O)cc1)C(=O)N2 [BCY12970],fold more potent than the 1:2 format,[1]; 2:2 molecule vs 1:2 format,2.9 fold
